Assay results: paper PMC8557901 (Microbiology Spectrum, 2021)

System: P. yoelii in HepG2-CD81 cells
Assay: Hepatic stage of P. yoelii in HepG2-CD81 cells
Assay type: cell-based
Details: Plasmodium yoelii; hepatic schizonts
Method: Hepatocytes were seeded into collagen-coated black 96-well plates and maintained at 37°C in 5% CO2 in complete medium. […] The infected culture plates were centrifuged for 10 min at 900 × g, allowing fast parasite sedimentation, and further incubated with serial dilutions of M1. […] DMSO was used as a negative control. The number, size, and shape of the parasites were determined using a CellInsight high-content screening platform equipped with Studio HCS software (ThermoFisher Scientific). The parasite immunostaining was done using an […]70 antibody raised in mice and a secondary anti-mouse antibody coupled to Alexa Fluor 488 ([43]). […] Thirty-seven images, representing more than 95% of the total bottom surface area of a culture well in 96-well plates, were captured for analysis. The custom script used for counting and measuring parasites first required identification of the objects based on a fluorescence intensity threshold. The object identity was then further validated based on size and morphological (shape) criteria. The presence of DAPI-associated fluorescence in the selected objects allowed their final selection and the rejection of false positives. […] The parasitic size reduction was calculated on the average object area using the total surface area of each selected object (μm^2).

## Cc1ccc(-c2cc3nc(NC(C)(C)C)[nH]c(=O)c3s2)cc1 [Metabolite M1, 2-(tert-Butylamino)-6-(p-tolyl)thieno[3,2-d]pyrimidin-4(3H)-one]
  EC50: 0.067 µM
